# What was measured:
# [1] = test system: wheat, winter; assay: Test C postemergence; format: in vivo, Triticum aestivum; conditions: for Plant response rating (0 to 100), Wheat: 0 is no effect, 100 is complete control; for Wheat plant response rating: 31 g ai/ha; for Wheat plant response rating / Plant response rating, Wheat: scale 0 to 100 (0 no effect, 100 complete control)
# Summary of the method: (§1)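 Visual ratings on a 0–100 scale (100 = complete control) were made versus untreated controls after 13–15 greenhouse days. Chemicals in a surfactant-containing non-phytotoxic solvent were applied either preemergence to seeds in loam–sand soil or postemergence to 1- to 4-leaf plants 2–18 cm tall.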
# [2] = test system: blackgrass; assay: Test C postemergence; format: in vivo, Alopecurus myosuroides; conditions: for Plant response rating (0 to 100), Blackgrass: 0 is no effect, 100 is complete control; for Blackgrass plant response rating: 31 g ai/ha; for Blackgrass plant response rating / Plant response rating, Blackgrass: scale 0 to 100 (0 no effect, 100 complete control)
# Summary of the method: as §1
# [3] = test system: johnsongrass; assay: Test C postemergence; format: in vivo, Sorghum halepense; conditions: for Plant response rating (0 to 100), Johnsongrass: 0 is no effect, 100 is complete control; for Johnsongrass plant response rating: 31 g ai/ha; for Johnsongrass plant response rating / Plant response rating, Johnsongrass: scale 0 to 100 (0 no effect, 100 complete control)
# Summary of the method: as §1
# [4] = test system: giant foxtail; assay: Test A preemergence; format: in vivo, Setaria faberii; conditions: for Plant response rating, Foxtail, Giant: 0 to 100 scale where 0 is no effect and 100 is complete control
# Summary of the method: (§2)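 Compounds in non-phytotoxic solvent with surfactant applied as soil spray preemergence, or postemergence to plants 2-10 cm at one- to two-leaf stage, in loam/sand. After approximately 10 days in greenhouse, injury rated visually versus untreated controls, 0 (no effect) to 100 (complete control).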
# [5] = test system: pigweed; assay: Test C postemergence; format: in vivo, Amaranthus retroflexus; conditions: for Plant response rating (0 to 100), Pigweed: 0 is no effect, 100 is complete control; for Pigweed plant response rating: 31 g ai/ha; for Pigweed plant response rating / Plant response rating, Pigweed: scale 0 to 100 (0 no effect, 100 complete control)
# Summary of the method: as §1
# [6] = test system: soybean; assay: Test C postemergence; format: in vivo, Glycine max; conditions: for Plant response rating (0 to 100), Soybean: 0 is no effect, 100 is complete control; for Soybean plant response rating: 31 g ai/ha; for Soybean plant response rating / Plant response rating, Soybean: scale 0 to 100 (0 no effect, 100 complete control)
# Summary of the method: as §1
# [7] = test system: ragweed; assay: Test C postemergence; format: in vivo, Ambrosia elatior; conditions: for Plant response rating (0 to 100), Ragweed: 0 is no effect, 100 is complete control; for Ragweed plant response rating: 31 g ai/ha; for Ragweed plant response rating / Plant response rating, Ragweed: scale 0 to 100 (0 no effect, 100 complete control)
# Summary of the method: as §1
# [8] = test system: galium; assay: Test C postemergence; format: in vivo, Galium aparine; conditions: for Plant response rating (0 to 100), Galium: 0 is no effect, 100 is complete control; for Galium plant response rating: 31 g ai/ha; for Galium plant response rating / Plant response rating, Galium: scale 0 to 100 (0 no effect, 100 complete control)
# Summary of the method: as §1
# [9] = test system: kochia; assay: Test C postemergence; format: in vivo, Kochia scoparia; conditions: for Plant response rating (0 to 100), Kochia: 0 is no effect, 100 is complete control; for Kochia plant response rating: 31 g ai/ha; for Kochia plant response rating / Plant response rating, Kochia: scale 0 to 100 (0 no effect, 100 complete control)
# Summary of the method: as §1
# [10] = test system: velvetleaf; assay: Test C postemergence; format: in vivo, Abutilon theophrasti; conditions: for Plant response rating (0 to 100), Velvetleaf: 0 is no effect, 100 is complete control; for Velvetleaf plant response rating: 31 g ai/ha; for Velvetleaf plant response rating / Plant response rating, Velvetleaf: scale 0 to 100 (0 no effect, 100 complete control)
# Summary of the method: as §1
# [11] = test system: waterhemp; assay: Test C postemergence; format: in vivo, Amaranthus rudis; conditions: for Plant response rating (0 to 100), Waterhemp: 0 is no effect, 100 is complete control; for Waterhemp plant response rating: 31 g ai/ha; for Waterhemp plant response rating / Plant response rating, Waterhemp: scale 0 to 100 (0 no effect, 100 complete control)
# Summary of the method: as §1
# [12] = test system: corn; assay: Test A postemergence; format: in vivo, Zea mays; conditions: for Plant response rating, Corn: 0 to 100 scale, 0 no effect, 100 complete control
# Summary of the method: as §2
# [13] = test system: oilseed rape; assay: Test C postemergence; format: in vivo, Brassica napus; conditions: for Plant response rating (0 to 100), Oilseed Rape: 0 is no effect, 100 is complete control; for Oilseed Rape plant response rating: 31 g ai/ha; for Oilseed Rape plant response rating / Plant response rating, Oilseed Rape: scale 0 to 100 (0 no effect, 100 complete control)
# Summary of the method: as §1
# [14] = postemergence, visual rating, 13 to 15 days
# [15] = 125 g ai/ha, postemergence, visual rating
# [16] = Postemergence, 62 g ai/ha, 13 to 15 days
# [17] = 31 g ai/ha, visual, approximately 10 days
structure (smiles),measurement,setting,value
FCc1cccc(Oc2ncc(Cl)cn2)c1-n1cc(I)cn1 [Compound 245],"Plant response rating (0 to 100), Wheat","[1]; 16 g ai/ha, postemergence",0
same,Wheat plant response rating,[1]; [14],0
same,"Plant response rating, Wheat",[1]; [15],5
same,"Plant response rating, Wheat",[1]; [16],0
same,"Plant response rating (0 to 100), Blackgrass","[2]; 16 g ai/ha, postemergence",0
same,Blackgrass plant response rating,[2]; [14],0
same,"Plant response rating, Blackgrass",[2]; [15],5
same,"Plant response rating, Blackgrass",[2]; [16],5
same,"Plant response rating (0 to 100), Johnsongrass","[3]; 16 g ai/ha, postemergence",5
same,Johnsongrass plant response rating,[3]; [14],5
same,"Plant response rating, Johnsongrass",[3]; [15],10
same,"Plant response rating, Johnsongrass",[3]; [16],10
same,"Plant response rating, Foxtail, Giant",[4]; [17],60
same,"Foxtail, Giant plant response rating (0 to 100 scale)",[4]; 125 g ai/ha,100
same,"Plant response rating (0 to 100), Pigweed","[5]; 16 g ai/ha, postemergence",40
same,Pigweed plant response rating,[5]; [14],55
same,"Plant response rating, Pigweed",[5]; [15],85
same,"Plant response rating, Pigweed",[5]; [16],75
same,"Plant response rating (0 to 100), Soybean","[6]; 16 g ai/ha, postemergence",40
same,Soybean plant response rating,[6]; [14],60
same,"Plant response rating, Soybean",[6]; [15],90
same,"Plant response rating, Soybean",[6]; [16],60
same,"Plant response rating (0 to 100), Ragweed","[7]; 16 g ai/ha, postemergence",35
same,Ragweed plant response rating,[7]; [14],40
same,"Plant response rating, Ragweed",[7]; [15],60
same,"Plant response rating, Ragweed",[7]; [16],45
same,"Plant response rating (0 to 100), Galium","[8]; 16 g ai/ha, postemergence",60
same,Galium plant response rating,[8]; [14],60
same,"Plant response rating, Galium",[8]; [15],85
same,"Plant response rating, Galium",[8]; [16],80
same,"Plant response rating (0 to 100), Kochia","[9]; 16 g ai/ha, postemergence",45
same,Kochia plant response rating,[9]; [14],75
same,"Plant response rating, Kochia",[9]; [15],98
same,"Plant response rating, Kochia",[9]; [16],90
same,"Plant response rating (0 to 100), Velvetleaf","[10]; 16 g ai/ha, postemergence",5
same,Velvetleaf plant response rating,[10]; [14],10
same,"Plant response rating, Velvetleaf",[10]; [15],55
same,"Plant response rating, Velvetleaf",[10]; [16],35
same,"Plant response rating (0 to 100), Waterhemp","[11]; 16 g ai/ha, postemergence",60
same,Waterhemp plant response rating,[11]; [14],65
same,"Plant response rating, Waterhemp",[11]; [15],75
same,"Plant response rating, Waterhemp",[11]; [16],85
same,"Plant response rating, Corn",[12]; 31 g ai/ha,20
same,"Plant response rating, Corn",[12]; 125 g ai/ha,40
same,"Plant response rating (0 to 100), Oilseed Rape","[13]; 16 g ai/ha, postemergence",40
same,Oilseed Rape plant response rating,[13]; [14],50
same,"Plant response rating, Oilseed Rape",[13]; [15],80
same,"Plant response rating, Oilseed Rape",[13]; [16],50
FCc1cccc(Oc2ncc(F)cn2)c1-n1cc(I)cn1 [Compound 152],"Plant response rating (0 to 100), Wheat","[1]; 8 g ai/ha, postemergence",0
same,"Plant response rating (0 to 100), Wheat","[1]; 16 g ai/ha, postemergence",0
same,Wheat plant response rating,[1]; [14],0
same,"Plant response rating (0 to 100), Blackgrass","[2]; 4 g ai/ha, postemergence",0
same,"Plant response rating (0 to 100), Blackgrass","[2]; 8 g ai/ha, postemergence",0
same,"Plant response rating (0 to 100), Blackgrass","[2]; 16 g ai/ha, postemergence",0
same,Blackgrass plant response rating,[2]; [14],0
same,"Plant response rating (0 to 100), Johnsongrass","[3]; 8 g ai/ha, postemergence",0
same,"Plant response rating (0 to 100), Johnsongrass","[3]; 16 g ai/ha, postemergence",5
same,Johnsongrass plant response rating,[3]; [14],5
same,"Plant response rating, Foxtail, Giant",[4]; [17],10
same,"Plant response rating, Foxtail, Giant",[4]; 125 g ai/ha,100
same,"Plant response rating (0 to 100), Pigweed","[5]; 8 g ai/ha, postemergence",30
same,"Plant response rating (0 to 100), Pigweed","[5]; 16 g ai/ha, postemergence",50
same,Pigweed plant response rating,[5]; [14],60
same,"Plant response rating (0 to 100), Soybean","[6]; 8 g ai/ha, postemergence",30
same,"Plant response rating (0 to 100), Soybean","[6]; 16 g ai/ha, postemergence",35
same,Soybean plant response rating,[6]; [14],60
same,"Plant response rating (0 to 100), Ragweed","[7]; 8 g ai/ha, postemergence",15
same,"Plant response rating (0 to 100), Ragweed","[7]; 16 g ai/ha, postemergence",10
same,Ragweed plant response rating,[7]; [14],40
same,"Plant response rating (0 to 100), Galium","[8]; 8 g ai/ha, postemergence",15
same,"Plant response rating (0 to 100), Galium","[8]; 16 g ai/ha, postemergence",35
same,Galium plant response rating,[8]; [14],55
same,"Plant response rating (0 to 100), Kochia","[9]; 8 g ai/ha, postemergence",10
same,"Plant response rating (0 to 100), Kochia","[9]; 16 g ai/ha, postemergence",15
same,Kochia plant response rating,[9]; [14],40
same,"Plant response rating (0 to 100), Velvetleaf","[10]; 8 g ai/ha, postemergence",5
same,"Plant response rating (0 to 100), Velvetleaf","[10]; 16 g ai/ha, postemergence",20
same,Velvetleaf plant response rating,[10]; [14],45
same,"Plant response rating (0 to 100), Waterhemp","[11]; 8 g ai/ha, postemergence",15
same,"Plant response rating (0 to 100), Waterhemp","[11]; 16 g ai/ha, postemergence",45
same,Waterhemp plant response rating,[11]; [14],60
same,"Plant response rating, Corn",[12]; 31 g ai/ha,20
same,Corn plant response rating,"[12]; 125 g ai/ha, 0 to 100 scale where 0 is no effect and 100 is complete control",30
same,"Plant response rating (0 to 100), Oilseed Rape","[13]; 8 g ai/ha, postemergence",5
same,"Plant response rating (0 to 100), Oilseed Rape","[13]; 16 g ai/ha, postemergence",35
same,Oilseed Rape plant response rating,[13]; [14],60

# Source: patent US9695155B2, “Herbicidal substituted pyrimidinyloxy benzene compounds” (E. I. DU PONT DE NEMOURS AND COMPANY, priority 2013, dated 2017)
